Measured values as given in patent US20100168054A1, “Functionalized Beta 1,6 Glucosamine Disaccharides and Process for Their Preparation” (OM PHARMA, priority 2006, published 2010).
Entries after “also recorded” stand apart in the source; their conditions may differ.

Tests used:
[1] = test system: human peripheral blood mononuclear cells (PBMC); assay: IL-6 secretion by human PBMC (ELISA); format: cell-based; conditions: for IL6: 24 h; for IL-6 secretion (in words): 1, 5, 20 μg/ml
Description: (§1) Peripheral blood from healthy donors (Centre de transfusion, Hôpital Universitaire, Geneva) was centrifuged to get the buffy coat. The buffy coat was mixed with Hanks' balanced saline solution (HBSS, Sigma, Buchs, Switzerland), layered over Ficoll Paque Plus (Amersham Pharmacia) to 1.077 g/mL and centrifuged (2800 rpm, 20° C., 25 min). Cells harvested from the interphase were washed twice in HBSS at 800 rpm for 15 min at room temperature and the pelleted cells were resuspended in HBSS. The cell counts were performed using a Neubauer cell. All cell cultures were performed in RPMI-1640 medium supplemented with penicillin (100 U/mL), streptomycin (100 μg/mL), L-glutamine (2 mmol/L) and 10% fetal calf serum (FCS), all obtained from Sigma. For in vitro stimulation, the cells were cultured at a concentration of 1×10^6 viable cells/well.
(§2) PBMC were incubated at 37° C. and under 5% CO2 atmosphere with the controls (see below) and with the products of the invention at 1, 5, and 20 μg/mL for IL-6, and at 0.2, 2, and 20 μg/mL for TNF-α secretion. Medium: RPMI alone.
(§3) The surpernatants of the cultures were harvested after 24 h and the concentration of IL-6 and TNF-α were measured by an enzyme-linked immunosorbent assay (ELISA) (Human IL-6 and TNF-α ELISA Set, BD OptEIA, San Diego, USA), according to the manufacturer instructions. The detection limits were 10 and 8 pg/mL respectively.
PBMC are incubated at 37° C. and under 5% CO2 atmosphere with the products of the invention.
The supernatants of the cultures are harvested after 24 h and the concentration of IL-6 was measured by an enzyme-linked immunosorbent assay (ELISA) (Human IL-6 ELISA Set, BD OptEIA, San Diego, USA), according to the manufacturer instructions. The detection limit was 10 pg/mL.

[2] = test system: human peripheral blood mononuclear cells (PBMC); assay: TNF-α secretion by human PBMC (ELISA); format: cell-based; conditions: for TNF-α: 24 h; for TNF-α induction (in words): 0.2, 2, 20 μg/ml
Description: as §1, §2, §3

[3] = test system: THP1-Blue cells (express naturally both TLR2 and TLR4); assay: THP1-Blue NF-κB/AP-1-inducible SEAP reporter; format: cell-based, human; conditions: for Optical density read at 625 nm, mean of duplicates: 48 h
Description: A first series of experiment was performed on THP-1 cells, which express naturally both TLR2 and TLR4. THP-1 cells are human peripheral blood monocytic cells. Monocytes play a key role in innate immunity and express most TLRs at various levels. As for the primary cells, THP-1 cells activate NF-κB and other transcription factors in response to TLR ligands
To facilitate analysis of TLR response in monocytes, InvivoGen (Toulouse, France) provides THP-1 clones stably transfected with an NF-κB-inducible reporter system, called THP1-Blue™. THP-1 Blue cells were stably transfected with a reporter plasmid expressing a secreted embryonic alkaline phosphatase (SEAP) gene under the control of a promoter inducible by several transcription factors such as NF-κB and AP-1. Upon TLR stimulation, THP1-Blue™ cells activate transcription factors and subsequently the secretion of SEAP which is easily detectable when using QUANTI-Blue\u2122a medium that turns purple/blue in the presence of SEAP.
The cells were stimulated with the controls and compounds of the invention according to manufacturer's instructions. Results: Increased OD at 625 Nm after 48 Hours: The results for the controls (negative=LPS K12CD25 ultrapure, a TLR4 agonist; and PAM3CSK4=positive, a TLR2 agonist) are provided in the table below. The results (expressed as OD of arbitrary units) show the mean values (from duplicate measures) of Optical density read at 625 nm, 48 h after stimulation at 37° C. with the controls (up to 1000 ng/ml): […]

TLR4 = biological target: T1, TLR4 (Homo sapiens, UniProt O00206+Q9Y6Y9); assay: HEK-MD2-TLR4-CD14 IL-8 secretion; format: cell-based; conditions: 24 h
T1 construct: expressed in transfected cells; host or cells: HEK293
Text: The HEK293 cell line was chosen for its null or low basal expression of the TLR genes. These cells enable efficient monitoring of TLR activity using ELISA analysis such as IL-8 titration or reporter-based systems that monitor TLR-induced NF-κB activation. HEK-TLR2 cells (Invivogen, Toulouse, France) are engineered HEK293 cells stably transfected with multiple genes from the TLR2 pathway that include TLR2 and genes participating in the recognition or involved in the signaling cascade. These cells secrete IL-8 after TLR2 stimulation. The experiments were performed according to manufacturers' instructions. Briefly, 2×10^4 cells/well (200 ul RPMI) are incubated at 37° C. during 3 days (5% CO2). The medium is removed, and 90 ul RPMi+5% FCS is added to the wells Then the agonists and controls are added (10 ul/well). The cells return to the incubator for 24 hours. The supernatants are collected and the IL-8 ELISA is performed according to manufacturer's instructions
HEK-MD2-TLR4-CD14 are highly sensitive to LPS. They were obtained by stable transfection of HEK293 cells with the TLR4, MD2 and CD14 genes and an NF-κB-inducible reporter system. They secrete IL-8. We used the same experimental procedure as for the other HEK cell lines described above.

T1 sequence (O00206 24-839): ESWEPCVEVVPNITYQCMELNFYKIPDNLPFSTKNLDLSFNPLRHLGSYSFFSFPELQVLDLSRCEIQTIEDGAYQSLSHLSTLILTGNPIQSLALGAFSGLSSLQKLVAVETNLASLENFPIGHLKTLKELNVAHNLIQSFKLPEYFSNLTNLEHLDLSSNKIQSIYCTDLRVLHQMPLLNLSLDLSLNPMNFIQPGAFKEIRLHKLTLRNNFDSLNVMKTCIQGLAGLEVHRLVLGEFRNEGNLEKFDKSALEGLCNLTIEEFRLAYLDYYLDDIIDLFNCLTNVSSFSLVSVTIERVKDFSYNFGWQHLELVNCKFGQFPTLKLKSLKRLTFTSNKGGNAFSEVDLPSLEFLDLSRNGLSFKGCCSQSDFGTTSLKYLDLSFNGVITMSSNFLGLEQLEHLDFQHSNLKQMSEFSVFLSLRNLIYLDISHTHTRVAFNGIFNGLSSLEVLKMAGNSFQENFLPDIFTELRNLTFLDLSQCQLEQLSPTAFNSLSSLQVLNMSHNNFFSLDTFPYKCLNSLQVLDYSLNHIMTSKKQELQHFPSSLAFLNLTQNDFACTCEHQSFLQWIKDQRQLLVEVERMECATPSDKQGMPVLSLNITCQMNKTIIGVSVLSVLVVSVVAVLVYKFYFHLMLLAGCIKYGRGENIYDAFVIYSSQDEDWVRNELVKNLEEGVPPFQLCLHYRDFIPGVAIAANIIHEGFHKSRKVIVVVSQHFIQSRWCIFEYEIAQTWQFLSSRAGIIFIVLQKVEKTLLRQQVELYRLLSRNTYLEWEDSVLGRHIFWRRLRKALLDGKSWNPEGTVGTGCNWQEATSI
T1 sequence (Q9Y6Y9 17-160 limits assumed): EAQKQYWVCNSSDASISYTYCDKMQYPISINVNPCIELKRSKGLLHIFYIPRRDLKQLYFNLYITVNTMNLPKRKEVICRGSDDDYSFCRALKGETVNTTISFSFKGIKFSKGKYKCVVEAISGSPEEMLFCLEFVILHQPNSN

| SMILES | IL6 ([1]; 1 μg/ml) | IL6 ([1]; 5 μg/ml) | IL6 ([1]; 20 μg/ml) | IL-6 secretion (in words) [1] | TNF-α ([2]; 0.2 μg/ml) | TNF-α ([2]; 2 μg/ml) | TNF-α ([2]; 20 μg/ml) | TNF-α induction (in words) [2] | activation of THP-1 cells (in words) [3] | Optical density read at 625 nm, mean of duplicates ([3]; 14 ng/ml) | Optical density read at 625 nm, mean of duplicates ([3]; 41 ng/ml) | Optical density read at 625 nm, mean of duplicates ([3]; 124 ng/ml) | Optical density read at 625 nm, mean of duplicates ([3]; 370 ng/ml) | Optical density read at 625 nm, mean of duplicates ([3]; 1111 ng/ml) | Optical density read at 625 nm, mean of duplicates ([3]; 3333 ng/ml) | Optical density read at 625 nm, mean of duplicates ([3]; 10000 ng/ml) | IL-8 secretion, mean (TLR4; 14 ng/ml) | IL-8 secretion, mean (TLR4; 41 ng/ml) | IL-8 secretion, mean (TLR4; 124 ng/ml) | IL-8 secretion, mean (TLR4; 370 ng/ml) | other results |
| --- | --- | --- | --- | --- | --- | --- | --- | --- | --- | --- | --- | --- | --- | --- | --- | --- | --- | --- | --- | --- | --- |
| CCCCCCCCCCCC(=O)O[C@H](CCCCCCCCCCC)CC(=O)NC1C(OCC2OC(OP(=O)(O)O)C(NC(=O)C[C@H](O)CCCCCCCCCCC)C(O)C2O)OC(CO)C(OP(=O)(O)O)C1O (stereo partly drawn) [compound 1b, 2-Deoxy-6-O-[2-deoxy-4-O-(dihydroxyphosphoryl)-2-[(R)-3-dodecanoyloxytetradecanoylamino]-β-D-glucopyranosyl]-2-[(R)-3-hydroxytetradecanoylamino]-α-D-glucopyranosyl dihydrogenophosphate] | 20.2 pg/mL | 57.1 pg/mL | 225.5 pg/mL | higher levels of IL-6; also recorded: able to induce IL-6 secretion | 37 pg/mL | 117 pg/mL | 1105 pg/mL | induced high levels of TNF-α | – | – | – | – | – | – | – | – | – | – | – | – | – |
| CCCCCCCCCCCC(=O)O[C@H](CCCCCCCCCCC)CC(=O)N[C@H]1[C@H](OC[C@H]2O[C@H](O)[C@H](NC(=O)C[C@H](O)CCCCCCCCCCC)[C@@H](O)[C@@H]2O)O[C@H](CO)[C@@H](OP(=O)(O)O)[C@@H]1O [compound 16, 2-Deoxy-6-O-[2-deoxy-4-O-(dihydroxyphosphoryl)-2-[(R)-3-dodecanoyloxytetradecanoylamino]-β-D-glucopyranosy]-2-[(R)-3-hydroxytetradecanoylamino]-α-D-glucopyranose] | 81.1 pg/mL | 473.3 pg/mL | 1348.2 pg/mL | able to induce IL-6 secretion | 0.69 pg/mL | 49 pg/mL | 1705 pg/mL | induced high levels of TNF-α | weaker | 0.15 OD | 0.13 OD | 0.15 OD | 0.16 OD | 0.17 OD | 0.18 OD | 0.22 OD | 1.75 pg/mL | 1.68 pg/mL | 1.62 pg/mL | 1.66 pg/mL | IL-6 induced ([1]; up to, doses to 20 μg/ml): up to 1348 μg/ml; IL-8 secretion, mean (TLR4; 1111 ng/ml): 1.60 pg/mL; IL-8 secretion, mean (TLR4; 3333 ng/ml): 1.63 pg/mL; IL-8 secretion, mean (TLR4; 10000 ng/ml): 1.90 pg/mL |
| CCCCCCCCCCCC(=O)O[C@H](CCCCCCCCCCC)CC(=O)N[C@H]1[C@H](OC[C@H]2O[C@H](OCCC)[C@H](NC(=O)C[C@H](O)CCCCCCCCCCC)[C@@H](O)[C@@H]2O)O[C@H](CO)[C@@H](OP(=O)(O)O)[C@@H]1O [compound 17, Propyl-2-Deoxy-6-O-[2-deoxy-4-O-(dihydroxyphosphoryl)-2-[(R)-3-dodecanoyloxytetradecanoylamino]-β-D-glucopyranosyl]-2-[(R)-3-hydroxytetradecanoylamino]-α-D-glucopyranoside] | 171.6 pg/mL | 447.6 pg/mL | 752.4 pg/mL | able to induce IL-6 secretion | 46 pg/mL | 474 pg/mL | 2114 pg/mL | induced high levels of TNF-α | good activators of THP-1 cells | 0.13 OD | 0.15 OD | 0.19 OD | 0.36 OD | 0.74 OD | 1.02 OD | 1.15 OD | 1.88 pg/mL | 1.97 pg/mL | 1.93 pg/mL | 1.85 pg/mL | IL-8 secretion, mean (TLR4; 1111 ng/ml): 1.94 pg/mL; IL-8 secretion, mean (TLR4; 3333 ng/ml): 1.89 pg/mL; IL-8 secretion, mean (TLR4; 10000 ng/ml): 1.70 pg/mL |
| CCCCCCCCCCCC(=O)O[C@H](CCCCCCCCCCC)CC(=O)N[C@H]1[C@H](OC[C@H]2O[C@H](OCCOP(=O)(O)O)[C@H](NC(=O)C[C@H](O)CCCCCCCCCCC)[C@@H](O)[C@@H]2O)O[C@H](CO)[C@@H](OP(=O)(O)O)[C@@H]1O [compound 33, 2-(Phosphonooxy)ethyl-2-Deoxy-6-O-[2-deoxy-4-O-(dihydroxyphosphoryl)-2-[(R)-3-dodecanoyloxytetradecanoylamino]-β-D-glucopyranosyl]-2-[(R)-3-hydroxytetradecanoylamino]-α-D-glucopyranoside] | – | – | – | – | 8.0 pg/mL | 8.3 pg/mL | 21 pg/mL | – | weaker | 0.13 OD | 0.12 OD | 0.13 OD | 0.16 OD | 0.19 OD | 0.25 OD | 0.35 OD | 1.83 pg/mL | 1.79 pg/mL | 1.65 pg/mL | 1.64 pg/mL | IL-8 secretion, mean (TLR4; 1111 ng/ml): 1.58 pg/mL; IL-8 secretion, mean (TLR4; 3333 ng/ml): 1.62 pg/mL; IL-8 secretion, mean (TLR4; 10000 ng/ml): 1.78 pg/mL |
